In one assay the target is CLK3 kinase (Homo sapiens, UniProt P49761). The experiment in a line: CLK3 kinase activity assay (Z-lyte FRET).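 Further: kinase activity read as coumarin/fluorescein emission ratio by FRET, unphosphorylated peptide as 0% and phosphorylated peptide as 100% control, values from non-linear regression of dose-response curves.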 The settings on record: Z-lyte Ser/Thr 18 peptide, 156 μM ATP, 1 h at room temperature. Type of assay: biochemical.
Assay [1] deals with primary human mesenchymal stem cells (hMSCs). The experiment in a line: Chondrogenesis screening using primary human mesenchymal stem cells. It is filed as cell-based. The note with it: Homo sapiens, Mesenchymal stem cells, hMSC chondrogenesis; for EC50: concentration required to induce 50% levels of chondrogenesis with TGF-β3 as positive control, read-out: Conc (nM) of 50% TGF-β3 activity; for Emax: maximum activity relative to TGF-β3 (10 ng/mL) positive control, read-out: Max. Activity as % TGF-β3 activity. In a few lines:
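Primary hMSCs at passage 3–6 were treated across compound concentrations, with TGF-β3 as positive control. Chondrogenic nodule area per well was normalized to 3 DMSO wells on the same plate (fold over DMSO, 2–3 replicates). EC50, maximum activity and the dose reaching it were derived.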

A further assay concerns the target CLK2 kinase (Homo sapiens, UniProt P49760). The experiment in a line: CLK2 kinase activity assay (Z-lyte FRET).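 Further: FRET read-out as coumarin to fluorescein emission ratio, unphosphorylated peptide as 0% and phosphorylated peptide as 100% controls, duplicate reactions, non-linear regression fit of dose-response curves.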 Type of assay: biochemical. The note with it: Z-lyte Ser/Thr 6 peptide, 60 μM ATP, 1 h at room temperature.
Assay [2] relates to Wnt pathway activity (SW480 colon carcinoma cells stably expressing the Sp5-Luc reporter). Briefly: Wnt pathway activity screening assay (Sp5-Luc reporter gene assay). The settings on record: Homo sapiens, SW480, Table 4; SW480 cells stably expressing Sp5-Luc reporter, 10-point dose-response from 10 μM, 36 to 48 hours. For orientation: In a reporter assay the amount or activity of a reporter protein is the signal.
Method: The screening assay for Wnt pathway activity is described as follows.
SW480 colon carcinoma cells were transduced with a lentiviral vector expressing luciferase with a human Sp5 promoter consisting of a sequence of eight TCF/LEF binding sites. […] These stably transduced SW480 cells were expanded in cell culture and used for all further screening activities. Each compound was dissolved in DMSO as a 10 mM stock and used to prepare compound source plates. Serial dilution (1:3, 10-point dose-response curves starting from 10 μM) and compound transfer was performed using the ECHO 550 (Labcyte, Sunnyvale, Calif.) into 384-well white solid bottom assay plates (Greiner Bio-One) with appropriate DMSO backfill for a final DMSO concentration of 0.1%. […] Following incubation, 15 μl of BriteLite Plus luminescence reagent (Perkin Elmer) was added to each well of the 384-well assay plates. The plates were placed on an orbital shaker for 2 min and then luminescence was quantified using the Envision (Perkin Elmer) plate reader.

From US20230000842A1, “METHODS OF TREATING CARTILAGE DISORDERS THROUGH INHIBITION OF CLK AND DYRK” (SAMUMED, LLC, priority 2019, published 2023) come the findings set out here.

Chain of CLK2 kinase (P49760 whole entry): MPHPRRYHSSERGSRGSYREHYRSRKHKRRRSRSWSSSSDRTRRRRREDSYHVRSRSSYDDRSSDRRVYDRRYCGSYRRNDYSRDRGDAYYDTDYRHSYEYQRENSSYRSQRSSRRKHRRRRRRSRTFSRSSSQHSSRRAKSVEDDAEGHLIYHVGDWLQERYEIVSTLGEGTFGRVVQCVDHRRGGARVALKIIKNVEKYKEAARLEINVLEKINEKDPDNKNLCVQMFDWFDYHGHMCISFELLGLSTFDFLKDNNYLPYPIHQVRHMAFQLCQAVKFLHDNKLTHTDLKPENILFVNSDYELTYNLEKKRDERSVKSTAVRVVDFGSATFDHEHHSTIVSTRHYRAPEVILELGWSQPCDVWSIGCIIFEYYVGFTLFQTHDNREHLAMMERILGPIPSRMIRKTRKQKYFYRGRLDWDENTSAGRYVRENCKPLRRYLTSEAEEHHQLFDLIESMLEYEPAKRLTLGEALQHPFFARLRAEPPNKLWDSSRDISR
Chain of CLK3 kinase (P49761 whole entry): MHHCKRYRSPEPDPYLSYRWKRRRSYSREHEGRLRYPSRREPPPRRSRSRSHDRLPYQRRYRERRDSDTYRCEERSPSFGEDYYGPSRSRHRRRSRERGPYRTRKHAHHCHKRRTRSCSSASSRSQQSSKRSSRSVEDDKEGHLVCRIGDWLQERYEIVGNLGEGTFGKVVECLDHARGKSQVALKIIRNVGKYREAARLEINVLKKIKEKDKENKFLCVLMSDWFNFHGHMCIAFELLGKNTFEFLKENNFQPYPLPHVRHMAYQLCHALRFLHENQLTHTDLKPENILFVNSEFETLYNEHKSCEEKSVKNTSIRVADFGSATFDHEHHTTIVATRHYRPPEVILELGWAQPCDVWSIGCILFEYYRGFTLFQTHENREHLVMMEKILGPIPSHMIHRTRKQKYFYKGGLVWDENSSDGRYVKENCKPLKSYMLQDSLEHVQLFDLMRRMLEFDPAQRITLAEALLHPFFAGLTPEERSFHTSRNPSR

For `CCC(=O)Nc1cncc(-c2cnc3[nH]nc(-c4nc5c(-c6ccc(F)cc6)cncc5[nH]4)c3c2)c1` [compound 160], the EC50 was found to be 37 nM on CLK3 kinase, 300 nM in assay [1], 3 nM on CLK2 kinase and 11 nM in assay [2]. Also, the Emax in assay [1] was found to be 143%.
Regarding `CN(C)Cc1cncc(-c2ccc3[nH]nc(-c4cc5c(N6CCCCC6)nccc5[nH]4)c3c2)c1` [compound 465], the results for the EC50 (on CLK3 kinase; on CLK2 kinase; in assay [2]) were 293 nM, 2 nM and 4710 nM, respectively. Further, the Emax in assay [1] is 220%.
As to `CN(C)Cc1cncc(-c2cnc3[nH]nc(-c4cc5c(-c6cccc(F)c6)cncc5[nH]4)c3c2)c1` [compound 310], the EC50 on CLK3 kinase stood at 74 nM; in assay [1], 10 nM; on CLK2 kinase it was 4 nM; in assay [2], 1180 nM. For the same compound, the Emax in assay [1] was 110%.
For the compound `CCNCc1cncc(-c2cnc3[nH]nc(-c4cc5c(-c6cccnc6)ccnc5[nH]4)c3c2)c1` [compound 366], the EC50 at CLK3 kinase is 74 nM; in assay [1], 10 nM; at CLK2 kinase it was 4 nM; in assay [2] it was greater than 10000 nM. In assay [1], the Emax is 91.8%.
On to `O=C(Nc1cncc(-c2cc3c(-c4cc5c(-c6cccnc6)cccc5[nH]4)n[nH]c3cn2)c1)C1CC1` [compound 354], for which the EC50 at CLK3 kinase came to 537 nM; in assay [1], 100 nM; at CLK2 kinase it was 12 nM; in assay [2], 330 nM. The Emax in assay [1] worked out at 308%.
In the case of `COc1ccc(NC(=O)c2n[nH]c3ccc(-c4cncc(CN5CCCCC5)c4)cc23)cn1` [compound 81], the EC50 at CLK3 kinase amounted to 32 nM; in assay [1], 300 nM; at CLK2 kinase, 1 nM; in assay [2], 15 nM. Further, the Emax in assay [1] was found to be 138%.
As for `FC1(F)CCN(Cc2cncc(-c3cnc4[nH]nc(-c5cc6c(-c7ccoc7)cccc6[nH]5)c4c3)c2)C1` [compound 503], the EC50 on CLK3 kinase was 104 nM; in assay [1] it was 30 nM; at CLK2 kinase, 10 nM; in assay [2], 1000 nM. In addition, the Emax in assay [1] was determined as 72.1%.
Regarding `CCCCC(=O)Nc1cncc(-c2ccc3[nH]nc(-c4cc5c(N6CCCCC6)cccc5[nH]4)c3n2)c1` [compound 458], the EC50 on CLK3 kinase was found to be 2190 nM; in assay [1] it was 100 nM; on CLK2 kinase it was 20 nM; in assay [2], 572 nM. The Emax in assay [1] was determined as 68.6%.
On to `Nc1cncc(-c2ccc3[nH]nc(-c4nc5c(-c6ccccc6F)cncc5[nH]4)c3n2)c1` [compound 170], for which the EC50 on CLK3 kinase is 12 nM; in assay [1], 10 nM; on CLK2 kinase, 1 nM; in assay [2], greater than 10000 nM. The Emax in assay [1] amounted to 98.2%.
Consider `CN(C)Cc1cncc(-c2ccc3[nH]nc(-c4cc5c(-c6cccnc6)cccc5[nH]4)c3n2)c1` [compound 368], for which the EC50 is 102 nM at CLK3 kinase, 4 nM at CLK2 kinase and 415 nM in assay [2]. For the same compound, in assay [1], the Emax was determined as 35.9%.
Take `CCCC(=O)Nc1cncc(-c2ccc3[nH]nc(-c4nc5c(-c6ccsc6)cncc5[nH]4)c3n2)c1` [compound 247]: the EC50 at CLK3 kinase was 48 nM; in assay [1] it was 20.6 nM; on CLK2 kinase, 2 nM; in assay [2], 3640 nM. Besides, in assay [1], the Emax is 58.4%.
As for `CN(C)Cc1cncc(-c2cc3c(-c4cc5c(-c6ccncc6)ccnc5[nH]4)n[nH]c3cn2)c1` [compound 400], the EC50 was 180 nM on CLK3 kinase, 12 nM at CLK2 kinase and greater than 10000 nM in assay [2]. Moreover, the Emax in assay [1] amounted to 33.4%.
Regarding `CCNCc1cncc(-c2ccc3[nH]nc(-c4nc5c(-c6cc(F)cc(NCCN(C)C)c6)nccc5[nH]4)c3n2)c1` [compound 285], the results for the EC50 (on CLK3 kinase; at CLK2 kinase; in assay [2]) were 90 nM, 1 nM and greater than 10000 nM, respectively. Moreover, the Emax in assay [1] was found to be 35.6%.
The matching figures for `Cc1ncc(-c2cnc3[nH]nc(-c4cc5c(-c6ccncc6)cncc5[nH]4)c3c2)n1C` [compound 406]: 227 nM, 3 nM, greater than 10000 nM and 194%.
Turning to `CCNCc1cncc(-c2ccc3[nH]nc(-c4cc5cccnc5[nH]4)c3n2)c1` [compound 440], the EC50 at CLK3 kinase was determined as 562 nM; in assay [1] it was 10 nM; at CLK2 kinase it was 3 nM; in assay [2], 3760 nM. Further, the Emax in assay [1] worked out at 79.9%.
Regarding `CC(C)Nc1cncc(-c2ccc3[nH]nc(-c4cc5c(-c6cccnc6)ccnc5[nH]4)c3c2)c1` [compound 361], the EC50 is 164 nM on CLK3 kinase, 5 nM at CLK2 kinase and greater than 10000 nM in assay [2]. In assay [1], the Emax was 45.5%.
On to `O=C(Cc1ccccc1)Nc1cncc(-c2ccc3[nH]nc(-c4cc5cnccc5[nH]4)c3c2)c1` [compound 434], for which the EC50 was found to be 189 nM on CLK3 kinase, 5 nM at CLK2 kinase and 1760 nM in assay [2]. In addition, in assay [1], the Emax turned out to be 119%.
Turning to `CC(C)(C)CC(=O)Nc1cncc(-c2ccc3[nH]nc(-c4cc5c(-c6ccoc6)ccnc5[nH]4)c3c2)c1` [compound 500], the EC50 on CLK3 kinase came to 117 nM; on CLK2 kinase it was 12 nM; in assay [2] it was 890 nM. In addition, the Emax in assay [1] came out at 21.2%.
Consider `CN(C)Cc1cncc(-c2cc3c(-c4cc5c(N6CCN(C)CC6)nccc5[nH]4)n[nH]c3cn2)c1` [compound 491], for which the EC50 on CLK3 kinase worked out at 1940 nM; on CLK2 kinase it was 20 nM; in assay [2], 3890 nM. Moreover, the Emax in assay [1] was determined as 13.9%.
Turning to `CN(C)Cc1cncc(-c2cnc3[nH]nc(-c4nc5c(-c6ccsc6)cncc5[nH]4)c3c2)c1` [compound 252], the EC50 was 118 nM on CLK3 kinase, 2 nM at CLK2 kinase and 57 nM in assay [2]. Also, in assay [1], the Emax was found to be 91.3%.
Consider `CS(=O)(=O)NCc1cc(F)cc(-c2cncc3[nH]c(-c4n[nH]c5ccc(-c6cncnc6)nc45)cc23)c1` [compound 538], for which the EC50 on CLK3 kinase was found to be 58 nM; in assay [1], 10 nM; at CLK2 kinase it was 2 nM; in assay [2], 1030 nM. In assay [1], the Emax turned out to be 106%.
Regarding `O=C(Nc1cncc(-c2ccc3[nH]nc(-c4nc5c(-c6ccncc6)ccnc5[nH]4)c3n2)c1)C1CCCCC1` [compound 198], the EC50 is 984 nM at CLK3 kinase, 10 nM in assay [1], 11 nM at CLK2 kinase and 999 nM in assay [2]. In assay [1], the Emax came to 68.6%.
`O=C(Nc1cncc(-c2ccc3[nH]nc(-c4cc5ccncc5[nH]4)c3n2)c1)C1CCCC1` [compound 430]: the EC50 is 147 nM on CLK3 kinase, 30 nM in assay [1], 7 nM on CLK2 kinase and 2630 nM in assay [2]. For the same compound, the Emax in assay [1] was determined as 50.3%.
The matching figures for `CC(=O)Nc1cncc(-c2ccc3[nH]nc(-c4cc5c(N6CCCCC6)nccc5[nH]4)c3c2)c1` [compound 457]: 52 nM, 10 nM, 1 nM, 445 nM and 244%.
On the same counts, the results for `c1cncc(-c2ccc3[nH]nc(-c4cc5c(-c6cccnc6)ccnc5[nH]4)c3n2)c1` [compound 344] are 9840 nM, 100 nM, 3 nM, greater than 10000 nM and 59.2%.
On to `Cc1cn(-c2nccc3[nH]c(-c4n[nH]c5ccc(-c6cncc(NC(=O)CC(C)C)c6)nc45)nc23)cn1` [compound 226], for which the EC50 on CLK3 kinase is 116 nM; in assay [1], 30 nM; at CLK2 kinase, 4 nM; in assay [2] it was 2900 nM. In addition, the Emax in assay [1] turned out to be 69.3%.
Turning to `CC(C)CC(=O)Nc1cncc(-c2ccc3[nH]nc(-c4nc5c(-c6cc(F)cc(CNS(C)(=O)=O)c6)cncc5[nH]4)c3c2)c1` [compound 292], the EC50 on CLK3 kinase was determined as 60 nM; in assay [1], 100 nM; on CLK2 kinase, 9 nM; in assay [2] it was 5 nM. For the same compound, the Emax in assay [1] was 118%.
Take `CN1CCN(c2cncc3[nH]c(-c4n[nH]c5ccc(-c6cncc(N7CCOCC7)c6)cc45)nc23)CC1` [compound 218]: the EC50 was 32 nM at CLK3 kinase, 1 nM on CLK2 kinase and 83 nM in assay [2]. Besides, the Emax in assay [1] is 63.8%.
`CS(=O)(=O)NCc1cc(F)cc(-c2cncc3[nH]c(-c4n[nH]c5ccc(-c6cncc(NC(=O)C7CCC7)c6)cc45)cc23)c1` [compound 527]: the results for the EC50 (at CLK3 kinase; at CLK2 kinase; in assay [2]) were 66 nM, 11 nM and 554 nM, respectively. Moreover, in assay [1], the Emax worked out at 14.5%.
Take `O=C(Nc1cncc(-c2cc3c(-c4cc5c(N6CCCCC6)nccc5[nH]4)n[nH]c3cn2)c1)C1CCC1` [compound 461]: the EC50 at CLK3 kinase was found to be 342 nM; on CLK2 kinase, 19 nM; in assay [2] it was 4070 nM. Also, the Emax in assay [1] came to 42.4%.
As for `O=C(Nc1cncc(-c2cnc3[nH]nc(-c4cc5c(-c6ccccc6F)cncc5[nH]4)c3c2)c1)C1CC1` [compound 329], the EC50 on CLK3 kinase is 42 nM; at CLK2 kinase, 8 nM; in assay [2], 390 nM. In assay [1], the Emax amounted to 52.1%.
